Test results as given in the supplement of paper PMC13380429.

Key:
Settings in all cases: 72 h
Caco-2 [1] = assay: cell viability relative to DMSO; higher = less toxic
Calu-3 [2] = assay: as above
HepG2 [3] = assay: as above
U2OS [4] = assay: as above
Vero E6 [5] = assay: as above
Caco-2 [6] = assay: relative viability EC50 (midpoint between 100% and the lowest measured viability); higher = less toxic
Calu-3 [7] = assay: as above
HepG2 [8] = assay: as above
U2OS [9] = assay: as above
Vero E6 [10] = assay: as above
Caco-2 [11] = assay: drug sensitivity score (DSS) for viability; higher = more toxic; extreme values may be limits of the assay
Calu-3 [12] = assay: as above
HepG2 [13] = assay: as above
U2OS [14] = assay: as above
Vero E6 [15] = assay: as above

| Structure (SMILES) | cell viability (Caco-2 [1]; 1 nM) [%] | cell viability (Caco-2 [1]; 10 nM) [%] | cell viability (Caco-2 [1]; 100 nM) [%] | cell viability (Caco-2 [1]; 1000 nM) [%] | cell viability (Caco-2 [1]; 10000 nM) [%] | cell viability (Calu-3 [2]; 1 nM) [%] | cell viability (Calu-3 [2]; 10 nM) [%] | cell viability (Calu-3 [2]; 100 nM) [%] | cell viability (Calu-3 [2]; 1000 nM) [%] | cell viability (Calu-3 [2]; 10000 nM) [%] | cell viability (HepG2 [3]; 1 nM) [%] | cell viability (HepG2 [3]; 10 nM) [%] | cell viability (HepG2 [3]; 100 nM) [%] | cell viability (HepG2 [3]; 1000 nM) [%] | cell viability (HepG2 [3]; 10000 nM) [%] | cell viability (U2OS [4]; 1 nM) [%] | cell viability (U2OS [4]; 10 nM) [%] | cell viability (U2OS [4]; 100 nM) [%] | cell viability (U2OS [4]; 1000 nM) [%] | cell viability (U2OS [4]; 10000 nM) [%] | cell viability (Vero E6 [5]; 1 nM) [%] | cell viability (Vero E6 [5]; 10 nM) [%] | cell viability (Vero E6 [5]; 100 nM) [%] | cell viability (Vero E6 [5]; 1000 nM) [%] | cell viability (Vero E6 [5]; 10000 nM) [%] | relative viability EC50 (Caco-2 [6]) [µM] | relative viability EC50 (Calu-3 [7]) [µM] | relative viability EC50 (HepG2 [8]) [µM] | relative viability EC50 (U2OS [9]) [µM] | relative viability EC50 (Vero E6 [10]) [µM] | drug sensitivity score (Caco-2 [11]) | drug sensitivity score (Calu-3 [12]) | drug sensitivity score (HepG2 [13]) | drug sensitivity score (U2OS [14]) | drug sensitivity score (Vero E6 [15]) |
| --- | --- | --- | --- | --- | --- | --- | --- | --- | --- | --- | --- | --- | --- | --- | --- | --- | --- | --- | --- | --- | --- | --- | --- | --- | --- | --- | --- | --- | --- | --- | --- | --- | --- | --- | --- |
| O=[N+]([O-])c1cn2c(n1)OC[C@@H](OCc1ccc(-c3ccc(OC(F)(F)F)cc3)nc1)C2 [TBA-354] | 99.5 | 95.4 | 103 | 92.1 | 92.9 | 101 | 103 | 106 | 96.1 | 98.5 | 92.9 | 108 | 89.4 | 110 | 105 | 98.3 | 98.8 | 102 | 100 | 98.8 | 96.7 | 101 | 93.6 | 99 | 104 | > 10 | > 10 | > 10 | > 10 | > 10 | 0 | 0 | 0 | 0 | 0 |
| COc1cc(OC)cc(C(=O)NNC(=O)Nc2cccc3ccccc23)c1 [TC-O-9311] | 96.3 | 112 | 101 | 102 | 88 | 84.2 | 92.1 | 93.6 | 97.8 | 107 | 100 | 101 | 92.3 | 90.9 | 98.7 | 99 | 100 | 98.3 | 101 | 98.4 | 102 | 102 | 94.9 | 94.1 | 96 | > 10 | > 10 | > 10 | > 10 | > 10 | 0 | 0 | 0 | 0 | 0 |
| CC(C)C(=O)SCCCCC[C@H](NC(=O)OC(C)(C)C)C(=O)NC12CC3CC(CC(C3)C1)C2 [TCS-HDAC6-20b] | 97.7 | 96.9 | 95.5 | 102 | 103 | 101 | 93.3 | 95.6 | 108 | 85.3 | 101 | 99.3 | 101 | 96.5 | 105 | 101 | 102 | 106 | 98.4 | 98.4 | 96.5 | 96.2 | 97 | 98.9 | 113 | > 10 | > 10 | > 10 | > 10 | > 10 | 0 | 0.1 | 0 | 0 | 0 |
